Measurements published in US20070254911A1, “Tetrahydro-Pyrazolo[3,4-c]Pyridine Cannabinoid Modulators” (priority 2006, published 2007).

Tests used:
human CB2 receptor = molecular target: T1, human CB2 receptor (Homo sapiens, UniProt P34972); assay: Binding assay for CB2, radioligand [3H]-CP-55,940 displacement on membranes of transfected SK-N-MC cells; conditions: test concentration of 0.2 μM; human CB2 in SK-N-MC membranes; read-out: Cannabinoid CB2 Receptor Binding Inhibition (%)
T1 construct: expressed in transfected cells; host or cells: SK-N-MC cells, stably transfected with pcDNA3 CB-2 (human); semi-purified membrane pellet
T1 sequence (P34972 whole entry): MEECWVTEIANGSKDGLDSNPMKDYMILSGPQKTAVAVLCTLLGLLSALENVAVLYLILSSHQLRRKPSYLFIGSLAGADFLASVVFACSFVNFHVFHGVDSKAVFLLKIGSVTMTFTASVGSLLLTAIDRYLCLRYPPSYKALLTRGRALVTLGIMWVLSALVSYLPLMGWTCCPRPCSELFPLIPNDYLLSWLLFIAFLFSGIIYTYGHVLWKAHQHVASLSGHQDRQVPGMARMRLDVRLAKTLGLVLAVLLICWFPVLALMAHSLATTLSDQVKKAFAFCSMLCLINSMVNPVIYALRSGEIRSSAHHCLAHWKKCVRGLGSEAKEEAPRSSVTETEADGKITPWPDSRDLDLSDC
Experimental: (§1) Binding Assay for CB1 or CB2 Agonists or Inverse Agonists
(§2) The human CB1 and CB2 receptors were stably expressed in SK-N-MC cells transfected with pcDNA3 CB-1 (human) or pcDNA3 CB-2 (human). The cells were grown in T-180 cell culture flasks under standard cell culture conditions at 37° C. in a 5% CO2 atmosphere. The cells were harvested by trysinization and homogenized in a homogenization buffer (10 mM Tris, 0.2 mM MgCl2, 5 mM KCl, with protease inhibitors aprotinin, leupeptin, pepstatin A and bacitracin) and centrifuged (2000 g). The supernatant was then centrifuged in 2M sucrose (31,300 g) to produce a semi-purified membrane pellet. The pellet was resuspended in homogenization and stored at −80° C.
(§3) On the day of the assay, the pellet was thawed on ice and diluted in assay buffer (50 mM Tris-HCl, 5 mM MgCl2, 2.5 mM EDTA, 0.5 mg/mL fatty acid free bovine serum albumin, pH 7.5). The diluted membrane pellet was added with buffer, either a test compound or vehicle standard and a the radioligand [H]^3+-CP-55,940 (0.2 nM) to the wells of a 96-well polypropylene plate. Non-specific binding was measured in wells containing WIN 55,212 (10 uM). The plate was covered and incubated for 90 minutes at 30° C. The contents were then aspirated onto a Packard Unifilter GF/C filter bottom plate prewet with 0.5% polyethyleneimine. The wells of the polypropylene plate were rinsed and aspirated seven times with a 0.9% saline-0.5% Tween 20 solution. The Unifilter plate was dried, a scintillation cocktail was added to each well and the counts representing binding were quantitated in a TopCount scintillation counter.
(§4) For compounds tested, an IC50 binding value was obtained from percent inhibition studies in which various test concentrations were used. The binding value (in μM) was calculated by linear regression.
(§5) For compounds without an IC50 binding value, the percent inhibition (%) was obtained at a test concentration of 0.2 μM.

human CB1 receptor = molecular target: T2, human CB1 receptor (Homo sapiens, UniProt P21554); assay: Binding assay for CB1, radioligand [3H]-CP-55,940 displacement on membranes of transfected SK-N-MC cells; conditions: for IC50: human CB1 in SK-N-MC membranes, [3H]-CP-55,940 0.2 nM, calculated by linear regression, read-out: Cannabinoid CB1 Receptor Binding IC50
T2 construct: expressed in transfected cells; host or cells: SK-N-MC cells, stably transfected with pcDNA3 CB-1 (human); semi-purified membrane pellet
T2 sequence (P21554 whole entry): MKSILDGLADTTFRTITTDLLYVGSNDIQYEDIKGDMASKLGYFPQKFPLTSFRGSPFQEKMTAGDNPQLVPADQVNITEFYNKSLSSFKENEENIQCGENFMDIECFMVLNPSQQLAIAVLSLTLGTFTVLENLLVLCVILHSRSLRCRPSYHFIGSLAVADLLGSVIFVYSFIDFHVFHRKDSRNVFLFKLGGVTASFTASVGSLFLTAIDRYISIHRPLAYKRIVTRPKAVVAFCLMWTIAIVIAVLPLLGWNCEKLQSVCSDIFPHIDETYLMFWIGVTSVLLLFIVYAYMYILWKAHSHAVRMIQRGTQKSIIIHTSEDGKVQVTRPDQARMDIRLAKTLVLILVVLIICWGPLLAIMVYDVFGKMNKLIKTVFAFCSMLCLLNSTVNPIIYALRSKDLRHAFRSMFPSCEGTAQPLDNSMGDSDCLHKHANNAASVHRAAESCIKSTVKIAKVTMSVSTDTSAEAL
Experimental: as §1, §2, §3, §4, §5

Structure (SMILES) | inhibition at 0.2 µM (human CB2 receptor) [%] | IC50 (human CB1 receptor) [nM] | inhibition at 0.2 µM (human CB1 receptor; test concentration of 0.2 μM, for compounds without an IC50 binding value, read-out: Cannabinoid CB1 Receptor Binding percent inhibition) [%]
C[C@@H](NC(=O)c1nn(-c2ccc(Cl)cc2Cl)c2c1CCN(C(=O)OC(C)(C)C)/C2=C/c1ccc(F)cc1)c1ccccc1 [Cpd 1, (7E)-1-(2,4-dichloro-phenyl)-7-(4-fluoro-benzylidene)-3-[(1R)-1-phenyl-ethylcarbamoyl]-1,4,5,7-tetrahydro-pyrazolo[3,4-c]pyridine-6-carboxylic acid tert-butyl ester] | 35 | 10 | –
CC(NC(=O)c1nn(-c2ccc(Cl)cc2Cl)c2c1CCN(C(=O)OC(C)(C)C)/C2=C/c1ccc(F)cc1)c1ccccn1 (stereo not shown) [Cpd 2, (7E)-1-(2,4-dichloro-phenyl)-7-(4-fluoro-benzylidene)-3-(1-pyridin-2-yl-ethylcarbamoyl)-1,4,5,7-tetrahydro-pyrazolo[3,4-c]pyridine-6-carboxylic acid tert-butyl ester] | 13 | 48 | –
CC(C)(C)OC(=O)N1CCc2c(C(=O)NN3CCCCC3)nn(-c3ccc(Cl)cc3Cl)c2/C1=C\c1ccc(F)cc1 [Cpd 3, (7E)-1-(2,4-dichloro-phenyl)-7-(4-fluoro-benzylidene)-3-(piperidin-1-ylcarbamoyl)-1,4,5,7-tetrahydro-pyrazolo[3,4-c]pyridine-6-carboxylic acid tert-butyl ester] | 13 | 12 | –
CC(C)(C)OC(=O)N1CCc2c(C(=O)N3CCCCC3)nn(-c3ccc(Cl)cc3Cl)c2/C1=C\c1ccc(F)cc1 [Cpd 4, (7E)-1-(2,4-dichloro-phenyl)-7-(4-fluoro-benzylidene)-3-(piperidine-1-carbonyl)-1,4,5,7-tetrahydro-pyrazolo[3,4-c]pyridine-6-carboxylic acid tert-butyl ester] | 18 | – | 39
COC(=O)N1CCc2c(C(=O)NC(C)c3ccccn3)nn(-c3ccc(Cl)cc3Cl)c2/C1=C\c1ccc(F)cc1 (stereo not shown) [Cpd 5, (7E)-1-(2,4-dichloro-phenyl)-7-(4-fluoro-benzylidene)-3-(1-pyridin-2-yl-ethylcarbamoyl)-1,4,5,7-tetrahydro-pyrazolo[3,4-c]pyridine-6-carboxylic acid methyl ester] | 17 | 33 | –
